Each compound was assayed on HEK293T cells carrying the ATF4 luciferase reporter (assay: ATF4-Luc assay (in vitro model of VWMD)). Settings: Homo sapiens, HEK-293T; HEK293T cells with ATF4 5'-UTR firefly luciferase reporter; 1 μg/mL tunicamycin; 7 hours; One Glo luminescence.
Format: cell-based
Experimental: In order to test exemplary compounds of the invention in a cellular context, a stable VWMD cell line was first constructed. The ATF4 reporter was prepared by fusing the human full-length ATF4 5′-UTR (NCBI Accession No. BC022088.2) in front of the firefly luciferase (FLuc) coding sequence lacking the initiator methionine as described in Sidrauski et al (eLife 2013). The construct was used to produce recombinant retroviruses using standard methods and the resulting viral supernatant was used to transduce HEK293T cells, which were then subsequently selected with puromycin to generate a stable cell line.
HEK293T cells carrying the ATF4 luciferase reporter were plated on polylysine coated 384-well plates (Greiner Bio-one) at 30,000 cells per well. Cells were treated the next day with 1 μg/mL tunicamycin and 200 nM of a compound of Formula (I) for 7 hours. Luminescence was measured using One Glo (Promega) as specified by the manufacturer. Cells were maintained in DMEM with L-glutamine supplemented with 10% heat-inactivated FBS (Gibco) and Antibiotic-Antimycotic solution (Gibco).
Table 2 below summarizes the EC50 data obtained using the ATF4-Luc assay for exemplary compounds of the invention.
`O=C(COc1ccc(Cl)c(F)c1)N[C@H]1C[C@H](C(=O)N2CC(c3ccc(Cl)cc3)C2)C1` [Compound 123, 2-(4-chloro-3-fluorophenoxy)-N-{(1r,3r)-3-[3-(4-chlorophenyl)azetidine-1-carbonyl]cyclobutyl}acetamide] gave an EC50 of 250 to 500 nM. Work on `O=C(COc1ccc(F)c(F)c1)N[C@H]1CC[C@H](C(=O)NCc2nc3cc(F)c(F)cc3[nH]2)CC1` [Compound 154, (1r,4r)-N-[(5,6-difluoro-1H-benzimidazol-2-yl)methyl]-4-[2-(3,4-difluorophenoxy)acetamido]cyclohexane-1-carboxamide] yielded an EC50 of over 2000 nM. `O=C(COc1ccc(Cl)c(F)c1)N[C@H]1C[C@H](C(=O)Nc2ccc(OC(F)F)nc2)C1` [Compound 168, (1r,3r)-3-[2-(4-chloro-3-fluorophenoxy)acetamido]-N-[6-(difluoromethoxy)pyridin-3-yl]cyclobutane-1-carboxamide] was tested, and the EC50 was over 2000 nM. Work on `O=C(COc1ccc(Cl)c(F)c1)N[C@@H]1CC[C@@H](C(=O)N2CC(c3ccc(Cl)cc3)C2)OC1` [Compound 160, 2-(4-chloro-3-fluorophenoxy)-N-{(3R,6S)-6-[3-(4-chlorophenyl)azetidine-1-carbonyl]oxan-3-yl}acetamide] yielded an EC50 of 10 to 50 nM. With `Cc1cncc(CNC(=O)[C@H]2CC[C@H](NC(=O)COc3ccc(Cl)c(F)c3)CC2)c1` [Compound 108, (1r,4r)-4-[2-(4-chloro-3-fluorophenoxy)acetamido]-N-[(5-methylpyridin-3-yl)methyl]cyclohexane-1-carboxamide] the EC50 was over 2000 nM. With `O=C(COc1ccc(Cl)c(F)c1)N[C@H]1CC[C@H](C(=O)NCCOc2ccc(Cl)c(F)c2)CC1` [Compound 178, (1r,4r)-4-[2-(4-chloro-3-fluorophenoxy)acetamido]-N-[2-(4-chloro-3-fluorophenoxy)ethyl]cyclohexane-1-carboxamide] the EC50 was 10 to 50 nM. In the case of `O=C(COc1ccc(Cl)c(F)c1)N[C@H]1CC[C@H](C(=O)Nc2ccc(OCC(F)(F)F)nc2)CC1` [Compound 115, (1r,4r)-4-[2-(4-chloro-3-fluorophenoxy)acetamido]-N-[6-(2,2,2-trifluoroethoxy)pyridin-3-yl]cyclohexane-1-carboxamide], the EC50 is reported as 500 to 2000 nM. Work on `O=C(COc1ccc(Cl)c(F)c1)N[C@H]1C[C@H](C(=O)NCc2ccc(Cl)cn2)C1` [Compound 121, (1r,3r)-3-[2-(4-chloro-3-fluorophenoxy)acetamido]-N-[(5-chloropyridin-2-yl)methyl]cyclobutane-1-carboxamide] yielded an EC50 of 250 to 500 nM. Compound `O=C(COc1ccc(Cl)cc1)N[C@H]1CC[C@H](C(=O)NCc2nc3cc(F)c(F)cc3[nH]2)CC1` [Compound 155, (1r,4r)-4-[2-(4-chlorophenoxy)acetamido]-N-[(5,6-difluoro-1H-benzimidazol-2-yl)methyl]cyclohexane-1-carboxamide] has an EC50 of 500 to 2000 nM. Compound `O=C(COc1ccc(Cl)c(F)c1)N[C@H]1CC[C@H](C(=O)NCc2ccc(OC(F)F)cn2)CC1` [Compound 107, (1r,4r)-4-[2-(4-chloro-3-fluorophenoxy)acetamido]-N-{[5-(difluoromethoxy)pyridin-2-yl]methyl}cyclohexane-1-carboxamide] has an EC50 of 10 to 50 nM. In the case of `O=C(COc1ccc(Cl)c(F)c1)N[C@H]1CC[C@H](C(=O)NCc2cc(OC3CCC3)ccn2)CC1` [Compound 170, (1r,4r)-4-[2-(4-chloro-3-fluorophenoxy)acetamido]-N-{[4-(cyclobutyloxy)pyridin-2-yl]methyl}cyclohexane-1-carboxamide], the EC50 is reported as over 2000 nM. With `O=C(COc1ccc(Cl)c(F)c1)N[C@H]1CC[C@H](C(=O)N2CC3(CN(c4ccc(Cl)c(F)c4)C3)C2)CC1` [Compound 124, 2-(4-chloro-3-fluorophenoxy)-N-{(1r,4r)-4-[6-(4-chloro-3-fluorophenyl)-2,6-diazaspiro[3.3]heptane-2-carbonyl]cyclohexyl}acetamide] the EC50 was over 2000 nM. `O=C(COc1ccc(Cl)c(F)c1)N[C@H]1CC[C@H](C(=O)N2CC(c3ccccc3)C2)CC1` [Compound 131, 2-(4-chloro-3-fluorophenoxy)-N-[(1r,4r)-4-(3-phenylazetidine-1-carbonyl)cyclohexyl]acetamide] gave an EC50 of 10 to 50 nM. For `O=C(COc1ccc(Cl)c(F)c1)N[C@@H]1CC[C@@H](C(=O)NCc2cc3cc(Cl)ccc3[nH]2)OC1` [Compound 142, (2S,5R)-5-[2-(4-chloro-3-fluorophenoxy)acetamido]-N-[(5-chloro-1H-indol-2-yl)methyl]oxane-2-carboxamide], the EC50 was 50 to 250 nM. Compound `O=C(COc1ccc(Cl)c(F)c1)N[C@H]1CC[C@H](C(=O)NCc2ccc(Cl)c(F)c2)CC1` [Compound 112, (1r,4r)-4-[2-(4-chloro-3-fluorophenoxy)acetamido]-N-[(4-chloro-3-fluorophenyl)methyl]cyclohexane-1-carboxamide] has an EC50 of under 10 nM. For `O=C(COc1ccc(Cl)c(F)c1)N[C@H]1CC[C@H](C(=O)N(CCO)Cc2ccc(Cl)c(F)c2)CC1` [Compound 181, (1r,4r)-4-[2-(4-chloro-3-fluorophenoxy)acetamido]-N-[(4-chloro-3-fluorophenyl)methyl]-N-(2-hydroxyethyl)cyclohexane-1-carboxamide], the EC50 was 500 to 2000 nM. Work on `O=C(COc1ccc(Cl)c(F)c1)N[C@@H]1CC[C@@H](C(=O)NCc2ccc(C(F)(F)F)cn2)OC1` [Compound 186, (2S,5R)-5-[2-(4-chloro-3-fluorophenoxy)acetamido]-N-{[5-(trifluoromethyl)pyridin-2-yl]methyl}oxane-2-carboxamide] yielded an EC50 of 10 to 50 nM. In the case of `Cc1cc(CNC(=O)[C@@H]2CC[C@@H](NC(=O)COc3ccc(Cl)c(F)c3)CO2)n(C)n1` [Compound 136, (2S,5R)-5-[2-(4-chloro-3-fluorophenoxy)acetamido]-N-[(1,3-dimethyl-1H-pyrazol-5-yl)methyl]oxane-2-carboxamide], the EC50 is reported as over 2000 nM. For `O=C(COc1ccc(Cl)c(F)c1)N[C@H]1CC[C@H](C(=O)N2CCC[C@H]2c2cc(F)ccc2F)CC1` [Compound 114, 2-(4-chloro-3-fluorophenoxy)-N-{(1S,4r)-4-[(2S)-2-(2,5-difluorophenyl)pyrrolidine-1-carbonyl]cyclohexyl}acetamide], the EC50 was over 2000 nM. In the case of `O=C(COc1ccc(Cl)c(Cl)c1)N[C@H]1CC[C@H](C(=O)Nc2ccc(OCC(F)(F)F)nc2)CC1` [Compound 103, (1r,4r)-4-[2-(3,4-dichlorophenoxy)acetamido]-N-[6-(2,2,2-trifluoroethoxy)pyridin-3-yl]cyclohexane-1-carboxamide], the EC50 is reported as over 2000 nM. For `O=C(COc1ccc(Cl)c(F)c1)N[C@H]1CC[C@H](C(=O)Nc2ccc(OC(F)(F)F)nc2)CC1` [Compound 177, (1r,4r)-4-[2-(4-chloro-3-fluorophenoxy)acetamido]-N-[6-(trifluoromethoxy)pyridin-3-yl]cyclohexane-1-carboxamide], the EC50 was under 10 nM. With `O=C(COc1ccc(Cl)c(F)c1)N[C@H]1CC[C@H](C(=O)NCc2ccc3c(c2)OC(F)(F)O3)CC1` [Compound 179, (1r,4r)-4-[2-(4-chloro-3-fluorophenoxy)acetamido]-N-[(2,2-difluoro-2H-1,3-benzodioxol-5-yl)methyl]cyclohexane-1-carboxamide] the EC50 was 10 to 50 nM. `O=C(COc1ccc(Cl)c(F)c1)N[C@@H]1CC[C@@H](C(=O)N2CCn3c(nnc3C(F)(F)F)C2)OC1` [Compound 144, 2-(4-chloro-3-fluorophenoxy)-N-{(3R,6S)-6-[3-(trifluoromethyl)-5,6-dihydro[1,2,4]triazolo[4,3-a]pyrazine-7(8H)-carbonyl]oxan-3-yl}acetamide] showed an EC50 of over 2000 nM.

From patent US11939320B2, “Modulators of the integrated stress pathway” (Calico Life Sciences LLC, priority 2017, dated 2024)
